Source: patent publication US6410735B1, “1-(4-arylpiperazin-1-y1)-ω-[N-(α,ω-dicarboximido)]-alkanes useful as uro-selective α1-adrenoceptor blockers” (Ranbaxy Laboratories Limited, priority 1997, dated 2002)
Counter-ions that a name gives are not always drawn. Like-named read-outs stand apart in the source and are kept apart here.

Legend:
α1A-adrenoceptor = biological target: T1, α1A-adrenoceptor (Rattus norvegicus, UniProt P43140); assay: Receptor binding assay, [3H]prazosin, rat submaxillary membranes
T1 construct: from tissue; host or cells: rat submaxillary gland membranes
T1 sequence (P43140 1-466): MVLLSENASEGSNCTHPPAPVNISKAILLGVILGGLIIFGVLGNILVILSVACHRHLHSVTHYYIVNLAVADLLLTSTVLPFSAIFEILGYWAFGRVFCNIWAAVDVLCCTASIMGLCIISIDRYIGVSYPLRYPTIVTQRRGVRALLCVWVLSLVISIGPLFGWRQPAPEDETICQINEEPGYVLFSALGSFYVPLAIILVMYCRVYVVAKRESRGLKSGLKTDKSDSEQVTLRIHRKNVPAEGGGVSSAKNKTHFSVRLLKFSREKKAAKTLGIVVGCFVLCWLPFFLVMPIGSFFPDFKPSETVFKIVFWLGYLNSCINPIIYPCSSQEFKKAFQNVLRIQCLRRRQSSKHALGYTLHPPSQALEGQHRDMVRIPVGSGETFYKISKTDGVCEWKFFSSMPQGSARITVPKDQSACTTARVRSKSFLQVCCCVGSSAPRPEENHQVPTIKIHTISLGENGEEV
Description: (§1) Receptor binding assays, (RBA's) were performed for native α1-adrenoceptors. Rat submaxillary and rat liver membrane preparations were used to assess the affinity for α1A and α1B subtypes, respectively. Aliquots of membrane protein ([…]) were incubated in a final volume of […] assay buffer (50 mM Tris, 0.5 mM EDTA at pH 7.4) with 0.5 nM [^3H] prazosin for 60 mins at 28 ° C. Reaction was stopped by rapid filtration on Millipore filters. Filters were dried and bound radioactivity counted. Non-specific binding was determined in the presence of 0.3 mM prazosin.

α1B-adrenoceptor = biological target: T2, α1B-adrenoceptor (Rattus norvegicus, UniProt P15823); assay: Receptor binding assay, [3H]prazosin, rat liver membranes; conditions: rat liver membranes, 0.5 nM [3H]prazosin; read-out: RBA (Ki nM) α1B
T2 construct: from tissue; host or cells: rat liver membranes
T2 sequence (P15823 1-515): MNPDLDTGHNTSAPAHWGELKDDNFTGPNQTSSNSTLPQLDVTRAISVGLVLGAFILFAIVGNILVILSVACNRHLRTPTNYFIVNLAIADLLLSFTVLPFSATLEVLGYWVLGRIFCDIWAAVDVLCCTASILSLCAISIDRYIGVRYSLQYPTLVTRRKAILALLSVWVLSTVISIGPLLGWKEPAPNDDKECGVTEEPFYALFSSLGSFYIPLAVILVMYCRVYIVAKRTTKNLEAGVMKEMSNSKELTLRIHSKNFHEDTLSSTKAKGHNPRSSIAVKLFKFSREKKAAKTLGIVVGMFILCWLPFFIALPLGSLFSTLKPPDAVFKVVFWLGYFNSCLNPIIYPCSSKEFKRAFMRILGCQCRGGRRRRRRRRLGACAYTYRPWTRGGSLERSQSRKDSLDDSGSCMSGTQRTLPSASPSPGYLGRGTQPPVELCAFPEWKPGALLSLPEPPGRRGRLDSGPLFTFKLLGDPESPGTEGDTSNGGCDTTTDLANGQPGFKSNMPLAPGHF
Description: as §1

[1] = biological target: T3, α1A-adrenoceptor (prostate) (Rattus norvegicus, UniProt P43140); assay: In vitro functional assay, phenylephrine-induced contraction of isolated prostate; type: cell-based
T3 construct: Aorta, prostate and spleen tissues were isolated from urethane anaesthetized (1.5 gm/kg) male wistar rats; from tissue; host or cells: isolated prostate of male Wistar rats
T3 sequence (P43140 1-466): T1 sequence (P43140 1-466)
Text: (§2) In order to study selectivity of action of the present compounds towards different α-adrenoceptor subtypes, the ability of these compounds to antagonize α1-adrenoceptor agonist induced contractile response of aorta (α1D), prostate (α1A) and spleen (α1B) was studied. Aorta, prostate and spleen tissues were isolated from urethane anaesthetized (1.5 gm/kg) male wistar rats. Isolated tissues were mounted in organ bath containing Krebs Henseleit buffer of the following composition (mM): NaCl 118; KCl 4.7; CaCl2 2.5; MgSO4·H2O 1.2; NaHCO3 25; KH2PO4 1.2; glucose 11.5. Buffer was maintained at 37° C. and aerated with a mixture of 95% O2 and 5% CO2. A resting tension of 2 g (aorta) or 1 g (spleen and prostate) was applied to tissues. Contractile response was monitored using a force displacement transducer and recorded on chart recorders. Tissues were allowed to equilibrate for 2 hours. At the end of equilibration period, concentration response curves to norepinephrine (aorta) and phenylephrine (spleen and prostate) were obtained in the absence and presence of the tested compound (at concentrations of 0.1, 1 and 10 μM). Antagonist affinity was calculated and expressed as PKB values in Table 1.

[2] = biological target: T4, α1B-adrenoceptor (spleen) (Rattus norvegicus, UniProt P15823); assay: In vitro functional assay, phenylephrine-induced contraction of isolated spleen; type: cell-based
T4 construct: Aorta, prostate and spleen tissues were isolated from urethane anaesthetized (1.5 gm/kg) male wistar rats; from tissue; host or cells: isolated spleen of male Wistar rats
T4 sequence (P15823 1-515): T2 sequence (P15823 1-515)
Text: as §2

α1D-adrenoceptor (aorta) = biological target: T5, α1D-adrenoceptor (aorta) (Rattus norvegicus, UniProt P23944); assay: In vitro functional assay, norepinephrine-induced contraction of isolated aorta; type: cell-based
T5 construct: Aorta, prostate and spleen tissues were isolated from urethane anaesthetized (1.5 gm/kg) male wistar rats; from tissue; host or cells: isolated aorta of male Wistar rats
T5 sequence (P23944 1-561): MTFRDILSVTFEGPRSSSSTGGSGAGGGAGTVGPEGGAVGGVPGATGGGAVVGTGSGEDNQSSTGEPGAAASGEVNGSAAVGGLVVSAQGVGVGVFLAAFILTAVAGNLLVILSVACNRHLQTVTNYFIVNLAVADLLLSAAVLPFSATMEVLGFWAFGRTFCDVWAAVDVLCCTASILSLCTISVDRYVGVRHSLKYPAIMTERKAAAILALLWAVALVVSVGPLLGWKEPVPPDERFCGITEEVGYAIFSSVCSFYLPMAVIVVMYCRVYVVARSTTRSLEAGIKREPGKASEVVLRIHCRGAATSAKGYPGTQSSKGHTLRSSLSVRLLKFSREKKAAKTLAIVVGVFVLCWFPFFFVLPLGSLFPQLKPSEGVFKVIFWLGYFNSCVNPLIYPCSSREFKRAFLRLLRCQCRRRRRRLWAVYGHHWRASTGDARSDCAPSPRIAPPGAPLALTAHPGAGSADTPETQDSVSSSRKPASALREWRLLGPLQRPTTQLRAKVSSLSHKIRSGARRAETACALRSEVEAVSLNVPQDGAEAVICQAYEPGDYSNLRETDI
Text: as §2

[3] = rat submaxillary membranes, 0.5 nM [3H]prazosin, read-out: RBA (Ki nM) α1A
[4] = rat prostate, phenylephrine, read-out: In Vitro Functional Assay (pKB) α1A (converted)
[5] = rat spleen, phenylephrine, read-out: In Vitro Functional Assay (pKB) α1B (converted)
[6] = rat aorta, norepinephrine, read-out: In Vitro Functional Assay (pKB) α1D (converted)

With `O=C1CCC(=O)N1CCCN1CCN(c2cccc(C(F)(F)F)c2)CC1` (as salt: hydrochloride) [Compound 3, 1-[4-(3-Trifluoromethylphenyl)piperazin-1-yl]-3-(2,5-dioxopyrrolidin-1-yl)propane] the melting point was 218 to 220 °C.

For `O=C1CCC(=O)N1CCCN1CCN(c2ccccn2)CC1` (as salt: hydrochloride) [Compound 4, 1-[4-(2-Pyridyl)piperazin-1-yl]-3-(2,5-dioxopyrrolidin-1-yl)propane], the melting point was 261 to 262 °C.

In the case of `O=C1CCC(=O)N1CCCN1CCN(c2cccc(Cl)c2)CC1` (as salt: hydrochloride) [Compound 5, 1-[4-(3-Chlorophenyl)piperazin-1-yl]-3-(2,5-dioxopyrrolidin-1-yl)propane], the melting point is reported as 230 to 231 °C.

Compound `COc1ccccc1N1CCN(CCN2C(=O)CCC2=O)CC1` (as salt: hydrochloride) [Compound 10, 1-[4-(2-Methoxyphenyl)piperazin-1-yl]-2-(2,5-dioxopyrrolidin-1-yl)ethane] has a melting point of 232 to 234 °C.

`O=C1CCCC(=O)N1CCCN1CCN(c2cccc(C(F)(F)F)c2)CC1` (as salt: hydrochloride) [Compound 16, 1-[4-(3-Trifluoromethylphenyl)piperazin-1-yl]-3-(2,6-dioxopiperidin-1-yl)propane] showed a melting point of 228 to 229 °C.

With `O=C1CCCC(=O)N1CCCN1CCN(c2ccccn2)CC1` (as salt: hydrochloride) [Compound 19, 1-[4-(2-Pyridyl)piperazin-1-yl)-3-(2,6-dioxopiperidin-1-yl)propane] the melting point was 244 to 245 °C.

Compound `O=C1CCCC(=O)N1CCCN1CCN(c2cccc(Cl)c2)CC1` (as salt: hydrochloride) [Compound 20, 1-[4-(3-Chlorophenyl)piperazin-1-yl]-3-(2,6-dioxopiperidin-1-yl)propane] has a melting point of 214 to 215 °C.

Work on `O=C1CCCC(=O)N1CCCN1CCN(c2ccccc2F)CC1` [Compound 17, 1-[4-(2-Fluorophenyl)piperazin-1-yl]-3-(2,6-dioxopiperidin-1-yl)propane] yielded a Ki (α1A-adrenoceptor) of 21 nM, a Ki (α1B-adrenoceptor) of 396 nM and a Kb [1] of 10 nM. For the same compound, the Kb [2] was 79.4 nM and the Kb (α1D-adrenoceptor (aorta)) was 12.6 nM.

Compound `Cc1ccccc1N1CCN(CCCN2C(=O)CCCC2=O)CC1` [Compound 18, 1-[4-(2-Methylphenyl)piperazin-1-yl]-3-(2,6-dioxopiperidin-1yl)propane] has a Ki (α1A-adrenoceptor; [3]) of 9 nM, a Ki (α1B-adrenoceptor) of 267 nM and a Kb [1, 4] of 6.31 nM. For the same compound, the Kb [2, 5] was 3160 nM and the Kb (α1D-adrenoceptor (aorta); [6]) was 3.16 nM.

With `Cc1ccc(N2CCN(CCCN3C(=O)CCCC3=O)CC2)cc1C` [Compound 21, 1-[4-(3,4-Dimethylphenyl)piperazin-1-yl]-3-(2,6-dioxopiperidin-1yl)propane] the Ki (α1A-adrenoceptor; [3]) was 2130 nM, the Ki (α1B-adrenoceptor) was 176 nM and the Kb [1, 4] was 316 nM. The Kb [2, 5] was 200 nM and the Kb (α1D-adrenoceptor (aorta); [6]) was 316 nM.
